We go through eight molecules from patent publication US20150094327A1, “COMPOSITIONS AND METHODS FOR […]” (priority 2012, published 2015).

A short description of data set [1]: Cytotoxicity, CellTiter-Glo Luminescent Cell Viability Assay. The following applies: for Cytotoxicity, LD50: CellTiter-Glo; for cytotoxicity: compared with compound 1. (ATP-based viability assays read luminescence as a measure of living cells.)
The next data set has as its target T1, fowlpox virus resolvase (Fowlpox virus, UniProt Q9J546).
T1 sequence (Q9J546 1-156): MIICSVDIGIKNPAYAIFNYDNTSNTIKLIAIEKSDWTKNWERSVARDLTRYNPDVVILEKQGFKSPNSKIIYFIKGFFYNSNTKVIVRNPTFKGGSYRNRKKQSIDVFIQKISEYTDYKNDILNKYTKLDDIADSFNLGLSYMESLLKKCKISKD
Description: Fluorescence polarization (FP) assay of bulged DNA substrate cleavage by fowlpox resolvase. It is filed as biochemical. The settings on record: for activity in the FP assay: compared with compound 1 or with the N-hydroxy parent; for IC50: off-center bulge substrate 2 nM, 10 nM fowlpox resolvase, 37° C., 1 hr. Background: Polarisation of emitted light reports the rotation of a fluorescent probe.

The next data set concerns vaccinia virus WR. In words: microbe, parasite or virus in culture. It is filed as cell-based. The settings on record: for IC50: Orthopoxvirus vaccinia.
The next data set concerns the target variola topoisomerase (Variola virus, UniProt P32989). It is filed as biochemical.
In the next data set the test system is fowlpox resolvase. In words: Holliday junction substrate cleavage by fowlpox resolvase, gel based assay. It is filed as biochemical, fowlpox virus. The following applies: authentic Holliday junction substrates in vitro.
Setting [2] is: 48 h, read-out: Antiviral assay, IC50.

Entries after “also recorded” stand apart in the source; their conditions may differ. Like-named read-outs stand apart in the source and are kept apart here.

The Log P is a log measure of how a compound divides between an organic and an aqueous phase. Read a low Log P as a more hydrophilic compound. A word on the IC50: it is the midpoint of a concentration-inhibition curve.

Sequence of variola topoisomerase (P32989 whole entry, looked up): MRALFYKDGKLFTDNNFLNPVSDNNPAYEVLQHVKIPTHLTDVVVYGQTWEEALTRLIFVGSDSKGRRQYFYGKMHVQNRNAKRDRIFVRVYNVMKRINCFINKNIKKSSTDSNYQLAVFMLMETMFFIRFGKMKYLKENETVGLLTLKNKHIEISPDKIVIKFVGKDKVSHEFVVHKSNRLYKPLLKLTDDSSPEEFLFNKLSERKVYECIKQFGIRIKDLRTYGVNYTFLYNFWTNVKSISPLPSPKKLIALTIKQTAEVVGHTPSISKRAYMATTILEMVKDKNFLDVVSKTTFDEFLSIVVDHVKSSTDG

On to `O=c1c(-c2ccccc2)c(O)c2cc(CCc3ccc(C(F)(F)F)cc3)cnc2n1O` [Compound 2, 1,4-Dihydroxy-3-phenyl-6-(4-(trifluoromethyl)phenethyl)-1,8-naphthyridin-2(1H)-one], for which, in data set [1], the “Cytotoxicity, LD50” value stood at 15 ± 12 µM and the “cytotoxicity” value was “no reduction in cytotoxicity”. The log partition coefficient (Log P) in “Log P (hydrophobicity)” was determined as 4.94. Besides, on fowlpox virus resolvase, the “activity in the FP assay” value is “slightly less potent” and the IC50 is 3 ± 2 µM. Besides, in the data set on vaccinia virus WR (setting [2]), the concentration for half-maximal inhibition (IC50) was determined as 4 ± 1 µM.

In the case of `O=c1c(-c2ccccc2)c(O)c2cc(/C=C/c3ccc(C(F)(F)F)cc3)cnc2n1OCc1ccccc1` [Compound 3], in the data set “Log P (hydrophobicity)”, the log partition coefficient (Log P) came out at 6.85. The results for the half-maximal inhibitory concentration (IC50) on fowlpox virus resolvase and in the data set with vaccinia virus WR (setting [2]) were over 250 µM and over 350 µM, respectively.

Regarding `CCOC(=O)c1c(O)c2cc(-c3cccc(OC)n3)cnc2n(OCc2ccccc2)c1=O` [Compound 8, Ethyl 1-(benzyloxy)-4-hydroxy-6-(6-methoxypyridin-2-yl)-2-oxo-1,2-dihydro-1,8-naphthyridine-3-carboxylate], the log partition coefficient (Log P) in the data set “Log P (hydrophobicity)” came to 3.54. In addition, on fowlpox virus resolvase, the “activity in the FP assay” value is “abolished activity” and the IC50 was over 250 µM. Also, in the data set with vaccinia virus WR (setting [2]), the half-inhibitory concentration (IC50) was over 350 µM.

With `CCOC(=O)c1c(O)c2cc(-c3cccc(OC)n3)cnc2n(O)c1=O` [Compound 7, Ethyl 1,4-dihydroxy-6-(6-methoxypyridin-2yl)-2-oxo-1,2-dihydro-1,8-naphthyridine-3-carboxylate], at variola topoisomerase, the “inhibition of variola topoisomerase activity” value is “no Inhibitory activity; also recorded: lack of inhibition”. In data set [1], the “Cytotoxicity, LD50” value is 156 ± 28 µM and the “cytotoxicity” value is “greatly increased”. Further, in the data set with fowlpox resolvase, the “inhibition of Holliday junction cleavage” value is reported as “inhibition of cleavage”. In addition, in the data set “Log P (hydrophobicity)”, the “Log P” value turned out to be 1.43. For the same molecule, on fowlpox virus resolvase, the “activity in the FP assay” value is recorded as “slight increase over compound 1” and half-maximal inhibition (IC50) was put at 11 ± 2 µM. In addition, the “antiviral activity” value in the data set on vaccinia virus WR was “slightly increased; also recorded: showed antiviral activity at concentrations below cytotoxic levels”. In addition, in the data set on vaccinia virus WR (setting [2]), the concentration for half-maximal inhibition (IC50) was found to be 25 ± 16 µM.

Turning to `CCOC(=O)c1c(O)c2cc(/C=C/c3ccc(C(F)(F)F)cc3)cnc2n(OCc2ccccc2)c1=O` [Compound 6, (E)-Ethyl 1-(benzyloxy)-4-hydroxy-2-oxo-6-(4-(trifluoromethyl)styryl)-1,2-dihydro-1,8-naphthyridine-3-carboxylate], the “Log P” value in “Log P (hydrophobicity)” was determined as 5.50. For the same molecule, at fowlpox virus resolvase, the “activity in the FP assay” value is given as “abolished activity” and the IC50 was over 250 µM. The half-inhibitory concentration (IC50) with vaccinia virus WR (setting [2]) was over 350 µM.

Turning to `CCOC(=O)c1c(O)c2cc(CCc3ccc(C(F)(F)F)cc3)cnc2n(O)c1=O` [Compound 5, Ethyl 1,4-dihydroxy-2-oxo-6-(4-(trifluoromethyl)phenethyl)-1,2-dihydro-1,8-naphthyridine-3-carboxylate], in data set [1], the “Cytotoxicity, LD50” value worked out at 20 ± 12 µM. In “Log P (hydrophobicity)”, the log partition coefficient (Log P) is reported as 3.60. In addition, the values for the 50% inhibitory concentration (IC50) at fowlpox virus resolvase and in the data set with vaccinia virus WR (setting [2]) were 14 ± 7 µM and 12 ± 1 µM, respectively.

Take `COc1ccc(CCc2cnc3c(c2)c(O)c(-c2ccccc2)c(=O)n3O)cc1` [Compound 4, 1,4-Dihydroxy-6-(4-methoxyphenethyl)-3-phenyl-1,8-naphthyridin-2(1H)-one]: in data set [1], the “Cytotoxicity, LD50” value turned out to be 10 ± 1 µM and the “cytotoxicity” value is “no reduction in cytotoxicity”. On fowlpox virus resolvase, the “activity in the FP assay” value is reported as “slightly less potent”. Moreover, in the data set with vaccinia virus WR (setting [2]), the IC50 was 11 ± 1 µM.

Take `O=c1c(-c2ccccc2)c(O)c2cc(-c3cccc(-c4ccccc4)c3)cnc2n1O` [Compound 1, 6-(Biphenyl-3-yl)-1,4-dihydroxy-3-phenyl-1,8-naphthyridin-2(1/H)-one]: the “Cytotoxicity, LD50” value in data set [1] is 13 ± 4 µM. For the same molecule, the “inhibition of Holliday junction cleavage” value with fowlpox resolvase is on record as “effective inhibition”. In addition, the figures for the IC50 in the data set on vaccinia virus WR (setting [2]) and in the data set on vaccinia virus WR (read-out: antiviral assays IC50) were 4 ± 1 µM and 4 µM, respectively.
